As usually defined, the IC50 is the concentration needed to halve the response being measured. A word on the EC50: it is the concentration needed to bring the measured effect to its halfway point. A high value points to a less potent agent.

This note sets out measurements from patent US7122570B2, “Tetrahydrocarbazol derivatives as ligands for G-protein-coupled receptors (GPCR)” (Zentaris AG, priority 2001, dated 2006).

One experiment addresses T1, hGnRH-Receptor (Homo sapiens, UniProt P30968).
T1 construct: expressed in transfected cells; host or cells: CHO-3 cells (Schmid et al., J. Biol. Chem. 275 (2000), 9193-9200), membrane preparation
T1 sequence (P30968 1-328): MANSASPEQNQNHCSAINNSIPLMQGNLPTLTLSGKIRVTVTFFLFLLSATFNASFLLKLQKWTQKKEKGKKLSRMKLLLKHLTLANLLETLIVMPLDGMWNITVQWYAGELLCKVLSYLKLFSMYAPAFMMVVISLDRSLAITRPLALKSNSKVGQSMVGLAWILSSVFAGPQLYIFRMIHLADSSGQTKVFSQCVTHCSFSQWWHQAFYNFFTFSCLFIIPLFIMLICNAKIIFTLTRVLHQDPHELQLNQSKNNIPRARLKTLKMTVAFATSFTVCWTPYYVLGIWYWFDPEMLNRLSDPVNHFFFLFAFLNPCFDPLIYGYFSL
As to the kind of experiment: GnRH receptor assay: competition binding with 125I-labeled buserelin on cell membranes. The settings on record: competition with 125I-buserelin. As to the method:
Buserelin is ordered from Welding (Frankfurt/Main, Germany). The compound is labeled with ^125I by use of the chloramine T-method and Na^125I (4000 Ci/mmol; Amersham-Buchler, Brunswick, Germany). The labeled substance is purified by reverse phase HPLC on a Spherisorb ODS II column (250×4 mm, particle size 3 μm) by elution with 50% acetonitrile/0.15% trifluoroacetic acid at a flow rate of 0.5 ml/minute. The specific activity is 2000 Ci/mmol.
Alpha T3-1 cells (Bilezikjian et al., Mol. Endocrinol 5 (1991), 347–355) are cultivated in DMEM medium (Gibco-BRL, Eggenstein-Leopoldshafen, Germany) with penicillin (100 I.U./ml), streptomycin (0.1 mg/ml) and glutamine (0.01 mol/l) and 10% fetal calf serum (FCS; PAA Laboratories, Coelbe, Germany) on plastic tissue culture plates (Nunc, 245×245×20 mm). CHO-3 cells (Schmid et al., J. Biol. Chem. 275 (2000), 9193–9200) are cultivated under identical conditions, apart from the fact that Ham's F12 medium (Gibco-BRL) is used.
Ten confluent cell culture plates are flushed twice with 50 ml of phosphate-buffered salt solution (PBS). The cells are harvested by scraping them off with a rubber scraper in 5 ml of PBS and sedimented by centrifuging in a laboratory centrifuge (Heraeus) at 800 rpm for 10 minutes. The cell pellet is resuspended in 5 ml of 0.25 mol/l of saccharose/0.01 mol/l of triethanolamine, pH 7.4. The cells are lysed by three cycles of freezing in dry ice/ethanol bath and thawing at room temperature. The lysate is centrifuged at 900 rpm for 10 minutes, and the sediment is discarded. The supernatant is centrifuged at 18,000 rpm in a Sorvall SS34 rotor for 30 minutes. The pellet (cell membranes) is suspended by Potters in 5 ml of assay buffer (0.25 mol/l of saccharose, 0.01 mol/l of triethanolamine, pH 7.5, 1 mg/ml of ovalbumin) and stored in 200 μl of aliquots at −20° C. The determination of protein is carried out according to the Bradford method (Anal. Biochem. 72 (1976), 248–254).
Binding studies for competition curves are performed as triplicates. A test sample contains 60 μl of cell membrane suspension (10 μg of protein for αT3-1 cells or 40 μg of protein for CHO3 cells), 20 μl of ^125I-labeled buserelin (100,000 Ipm per sample for competition curves and between 1,500 and 200,000 Ipm for saturation experiments) and 20 μl of test buffer or test compound solution. The test compounds are dissolved in distilled water or 50% ethanol. Serial dilutions (5×10^−6 mol/l to […]) are produced in test buffer. The unspecific binding is determined in the presence of excess unlabeled buserelin (10^−6 mol/1). The test samples are incubated for 30 minutes at room temperature. Bonded and free ligands are separated by filtration (Whatman GF/C-filter, 2.5 cm diameter) with use of an Amicon 10x collecting device and washed twice with 5 ml of 0.02 mol/l of Tris/HCl, pH 7.4. The filters are moistened with 0.3% polyethylenimine (Serva; Heidelberg, Germany) for 30 minutes to reduce the unspecific binding. The radioactivity that was held up by the filter is determined in a 5-channel gamma-counter (Wallac-LKB 1470 Wizard).
In the table below, the IC50 values that are obtained for the preferred compounds, as defined above, are indicated.

In experiment [1] the target is T2, GnRH receptor (Homo sapiens, UniProt P30968).
T2 sequence (P30968 1-328): T1 sequence (P30968 1-328)
Briefly: Ca2+ release, human. It counts as cell-based. Conditions: read-out: Ca^2+ Release Human IC50.

Experiment [2] concerns the target T2, GnRH receptor. Briefly: Receptor binding assay with 125I-triptorelin on transfected LTK cells. Conditions: competition with 125I-triptorelin, whole LTK cells, 60 minutes at 37° C. How it is done:
^125I-Triptorelin [^125I-(D)-Trp6-GnRH] is ordered from the Biotrend Company (Cologne, Germany). The specific activity in each case is 2.13 Ci/mmol. All other chemicals are ordered from commercial sources at the highest available purity.
Transfixed LTK′ cells (ATCC No. CCL-11.3) are cultivated in DMEM medium (Invitrogen Life Technologies, Germany) with penicillin (100 I.U./ml), streptomycin (0.1 mg/ml) and glutamine (0.01 mol/l) and 10% fetal calf serum (FCS; Invitrogen Life Technologies, Germany) on plastic tissue culture plates (Nunc, Germany, 245×245×20 nun).
80% confluent cell culture plates are washed twice with 50 ml of phosphate-buffered salt solution (PBS) and dissolved below with 0.01 M EDTA solution. The cells are pelletized by centrifuging at 200×g for 5 minutes in a laboratory centrifuge (Kendro, Germany). The cell pellet is resuspended in 3 ml of binding medium (DMEM; 10 mmol of Hepes; 0.5% BSA; 0.1% NaN3; 1 g/l of bacitracin (freshly added, stock 100×); 0.1 g/l of SBTI (freshly added, stock 1000×), and the cell count is determined by means of trypan blue staining in a Neubauer counting chamber. The cell suspension is set with binding medium to a concentration of 5×10^5 Z/0.05 ml.
Binding tests for competition curves are performed as duplicates. The test substances are used as 10 mmol DMSO solutions. They are diluted with binding medium to 4× the final concentration used. 25 μl of the substance dilution is mixed with 25 μl of tracer solution (^125I-triptorelin). The concentration of tracer is set to about 50,000 cpm (measured in Cobra II, γ-counter, PE Liefe Science, Germany) in the final reaction volume of 100 μl.
200 μl of a silicone/paraffin oil mixture (84%:16%) is introduced into 650 μl pointed-bottom tubes (Roth, Germany). 50 μl of the cell suspension is pipetted thereto and subsequently 50 μl of the test substance/tracer mixture. The tubes are sealed and incubated for 60 minutes at 37° C. in an incubator that rotates via the top. After incubation, the samples are centrifuged in a centrifuge (Kendro, Germany) at 900 rpm and subsequently flash-frozen in liquid N2. The tip with the cell pellet is cut off and inserted into the prepared counting tube (Roth, Germany). The remainder of the pointed-bottom tube with the remaining supernatant is also inserted into a counting tube. The measurement is made in a γ-counter for 1 minute/sample.
The evaluation of the samples is carried out after calculating the specific bond in comparison to untreated cells, after the unspecific bond (excess unlabeled ligand, 1 mmol) is removed by means of GraphPad Prism (GraphPad Software Inc., USA).

`CC[C@H](C)[C@H](NC(=O)OCc1ccccc1)C(=O)N[C@]1(C(=O)N2C3CCCCC3C[C@H]2C(N)=O)CCc2[nH]c3ccccc3c2C1` (stereo partly drawn) [Compound 190a, Phenylmethyl [(1S,2S)-1-[[[(3R)-3-[[(2S)-2-(aminocarbonyl)octahydro-1H-indol-1-yl]-carbonyl]-2,3,4,9-tetrahydro-1H-carbazol-3-yl]-amino]carbonyl]-2-methylbutyl]carbamate]: the 50% inhibitory concentration (IC50) on hGnRH-Receptor amounted to 2 µM; on GnRH receptor [1], 0.5 µM. The corresponding values for `CC[C@H](C)[C@H](NC(=O)OCc1ccccc1)C(=O)N[C@]1(C(=O)N[C@H](C(=O)NC)C(C)C)CCc2[nH]c3ccccc3c2C1` [Compound 222a, Phenylmethyl [(1S,2S)-2-methyl-1-[[[(3R)-2,3,4,9-tetrahydro-3-[[[(1S)-2-methyl-1-[(methylamino)carbonyl]-propyl]amino]carbonyl]-1H-carbazol-3-yl]amino]carbonyl]-butyl]carbamate] are 2.5 µM and 3 µM. The corresponding values for `CC(C)[C@H](NC(=O)[C@@]1(NCCCCCCc2ccccc2)CCc2[nH]c3ccccc3c2C1)C(N)=O` [Compound 234a, (3R)-N-[(1S)-1-(Aminocarbonyl)-2-methylpropyl]-2,3,4,9-tetrahydro-3-[(6-phenylhexyl)amino]-1H-carbazole-3-carboxamide] are 9 µM and 1 µM. The corresponding values for `CC[C@H](C)[C@H](NC(=O)OCc1ccccc1)C(=O)N[C@]1(C(=O)N[C@H](CO)C(C)C)CCc2[nH]c3ccccc3c2C1` [Compound 267a, Phenylmethyl [(1S,2S)-1-[[[(3R)-3-[[[(1S)-1-(hydroxymethyl)-2-methylpropyl]amino]-carbonyl]-2,3,4,9-tetrahydro-1H-carbazol-3-yl]amino]carbonyl]-2-methylbutyl]carbamate] are 0.4 µM and 0.5 µM. For `c1ccc(CCCC2(CNCc3ccccn3)CCc3[nH]c4ccccc4c3C2)cc1` (stereo not drawn) [Compound 279, 2,3,4,9-Tetrahydro-3-(3-phenylpropyl)-N-(2-pyridinylmethyl)-1H-carbazole-3-methanamine], the 50% inhibitory concentration (IC50) at hGnRH-Receptor worked out at 2 µM; on GnRH receptor [1], 3 µM. For the compound `Clc1cc(Cl)c2[nH]c3c(c2c1)CC(CCCc1ccccc1)(CNCc1ccccn1)CC3` (stereo not drawn) [Compound 283, 6,8-dichloro-2,3,4,9-tetrahydro-3-(3-phenylpropyl)-N-(2-pyridinylmethyl)-1H-carbazole-3-methanamine], the IC50 at hGnRH-Receptor was found to be 1 µM; at GnRH receptor [1], 3 µM. The corresponding values for `CC(C)[C@@H](CO)NCC1(CCCc2ccccc2)CCc2[nH]c3ccccc3c2C1` (stereo partly drawn) [Compound 284, (2S)-3-Methyl-2-[[[2,3,4,9-tetrahydro-3-(3-phenylpropyl)-1H-carbazol-3-yl]methyl]-amino]-1-butanol] are 7 µM and 7 µM. On GnRH receptor [2], `CC[C@H](C)[C@H](NC(=O)OCc1ccccc1)C(=O)N[C@]1(C(=O)N[C@H](C(N)=O)C(C)(C)C)CCc2[nH]c3c(Cl)cc(Cl)cc3c2C1` [Compound 298, Phenylmethyl [(1S,2S)-1-[[[(3R)-3-[[[(1S)-1-(aminocarbonyl)-2,2-dimethylpropyl]amino]carbonyl]-6,8-dichloro-2,3,4,9-tetrahydro-1H-carbazol-3-yl]amino]car-bonyl]-2-methylbutyl]carbamate] gave an EC50 of 0.288 µM.

In turn, `CC[C@H](C)[C@H](NC(=O)[C@@]1(NC(=O)[C@H](CCc2ccc(O)cc2)NC(=O)OCc2ccccc2)CCc2[nH]c3c(Cl)cc(Cl)cc3c2C1)C(N)=O` [Compound 303, Phenylmethyl [(1S)-1-[[[(3R)-3-[[[(1S,2S)-1-(aminocarbonyl)-2-methylbutyl]amino]carbonyl]-6,8-dichloro-2,3,4,9-tetrahydro-1H-carbazol-3-yl]amino]car-bonyl]-3-(4-hydroxyphenyl)-propyl]carbamate] yielded a half-maximal effective concentration (EC50) on GnRH receptor [2] of 0.021 µM. Still for that read-out and setting: in the case of `CC[C@H](C)[C@H](NC(=O)[C@@]1(NC(=O)[C@H](CC(C)C)NC(=O)OCc2ccccc2)CCc2[nH]c3c(Cl)cc(Cl)cc3c2C1)C(N)=O` [Compound 305, Phenylmethyl [(1S)-1-[[[(3R)-3-[[[(1S,2S)-1-(aminocarbonyl)-2-methylbutyl]amino]carbonyl]-6,8-dichloro-2-3,4,9-tetrahydro-1H-carbazol-3-yl]amino]car-bonyl]-3-methylbutyl]carbamate] it was 0.056 µM.

In the case of `CC(C)C[C@H](NC(=O)[C@@]1(NC(=O)[C@H](CC(C)C)NC(=O)OCc2ccccc2)CCc2[nH]c3c(Cl)cc(Cl)cc3c2C1)C(N)=O` [Compound 306, Phenylmethyl [(1S)-1-[[[(3R)-3-[[[(1S)-1-(aminocarbonyl)-3-methylbutyl]amino]carbonyl]-6,8-dichloro-2,3,4,9-tetrahydro-1H-carbazol-3-yl]amino]car-bonyl]-3-methylbutyl]carbamate], the EC50 at GnRH receptor [2] is 0.077 µM.
